“And” between values parts separate entries of the source, which are not always exact repeats. Equal entries are not always repeated. “Also recorded” adds a separate entry of the source. Marks after values point to notes of the source that are not given here.
Legend:
[1] = test system: angiotensin I converting enzyme; experiment: ACE-I inhibitory activity (fluorometric kit CS0002); format: biochemical
Protocol: ACE-I inhibitory assay was determined by ACE-I activity assay kit (fluorometric, CS0002). This assay is based on the hydrolysis of angiotensin I by ACE to yield angiotensin II. Briefly, all reagents were diluted in the assay buffer, and a total of 50 μL of peptide sample, positive control (captopril PHR1307), and assay buffer (blank) were added to a 96-well black plate. The standard was added at 0, 0.1, 0.2, 0.3, 0.4, 0.5, 0.6, and 0.8 nmol and adjusted to a final volume of 100 μL. […] Finally, fluorescence (λex, 320 nm; λem, 405 nm) was measured in five cycles for 5 min. Linear regressions were determined to calculate the enzymatic activity for each sample per concentration. Thus, one unit was defined as the amount of enzyme that releases 1 nmol of fluorescent substrate in 1 min at 37 °C. Finally, the inhibition (%) of each peptide and positive control was determined using regression analysis of the corresponding dose–response curves.

ACE-I = details: pearl garlic peptides; ref Yudho-Sutopo et al. [121]; read-out: ACE-I inhibition IC50; cited from earlier work
Excerpt: Yudho-Sutopo et al. reported the ACE-I inhibitory activity of four synthetic peptides from pearl garlic (DHSTAVW, KLAKVF, KLSTAASF, and KETPEAHVF). […] According to Yudho-Sutopo et al., the hydrophobic amino acid in the C-terminal and amino acids with a positively charged side-chain amino group, like in DHSTAVW, are determinants in the inhibition of ACE-I. Furthermore, a study by Zheng et al. reported an ACE-I inhibitory peptide – RGQVIYVL – from Chenopo ...

LOX = details: cited from earlier work; for anti-LOX activity (inhibition): 1 mg/mL, velvet antler blood peptides, ref Ding et al. [119]
Excerpt: Ding et al. evaluated eight peptides from velvet antler blood (LFP, FPH, EHF, VGYP, FSAL, LSQKFPK, HHGGEFTPV, and LKECCDKPV) for anti-LOX activity. […] Karas et al. reported six LOX-inhibitory peptides from millet grain (RLARAGLAQ, YGNPVGGVGH, EQGFLPGP ...

human DPP-IV = experiment: DPP-IV inhibitory activity; format: biochemical; details: H-Gly-Pro-pNA, 37 °C, mean ± SD, n = 9
Protocol: Dipeptidyl peptidase-IV (DPP-IV) inhibitory activity was measured following the method by Vilcacundo et al., with slightly modifications. […] For the negative control 70 μL of Tris Buffer was added. Finally, 100 μL of substrate (H-Gly-Pro-pNA, 100 mM) was added to all wells. The reaction was performed at 37 °C in the microplate reader (BioTek Instruments, Winooski, VT, USA), and the reaction was read at 405 nm for 30 min, with reading intervals of 2 min. Finally, data were plotted and fitted to a logarithmic regression to obtain dose–response curves.

[2] = test system: 15-LOX enzyme (soybean lipoxygenase); experiment: Lipoxygenase inhibitor screening assay (LOX); format: biochemical; details: 31.25 μM; linoleic acid 1 mM, RT, 490 nm
Protocol: Lipoxygenase inhibitory activity assay (LOX) was determined following the manufacturer’s instructions (#760700). Thus, peptide concentrations (31.25–125 μM) were prepared with the assay buffer and tested in triplicate. First, 10 μL of the peptides at each concentration was mixed with 90 μL of 15-LOX enzyme (soybean lipoxygenase) in a 96-well plate. Then, three wells each contained assay buffer as blank (without enzyme), assay buffer as vehicle (with enzyme), and 15-LOX as positive control. Afterward, 10 μL of linoleic acid (1 mM) (substrate) was added to all wells and shaken for 10 min at RT. Finally, 100 μL of chromogen was added to all wells, and the plate was sealed and shaken for an additional 5 min at RT. The final reaction was measured at 490 nm, and the percentage of inhibition was calculated as. %inhibition=[1−Correctedvaluesofpeptide/Correctedvaluesofvehicle]×100

[3] = Trolox equivalent antioxidant capacity (TEAC, ABTS radical cation); details: 734 nm, 6 min, mean ± SD, n = 9
Protocol: The Trolox equivalent antioxidant capacity (TEAC) analysis was performed as described by Sanchez-Velazquez et al. In order to produce ABTS (2,2’-azino-bis(3-ethylbenzthiazoline-6-sulfonic acid) radical cation (ABTS^ ●+ ), ABTS (7 mM) were mixed with potassium persulfate (2.45 mM) in the dark at room temperature (RT 18–21 °C) for 16 h. […] Finally, the reaction was measured at 0 and 6 min at 734 nm (SPARK-10M, TECAN, Switzerland). The percentage of inhibition was calculated as follows: %TEACinhibition=Abs sample0min−Abs sample6min/Abs sample0min−(Abs blank0min−Abs blank6min/Abs blank0min)×100

[4] = test system: porcine pancreatic α-amylase (PPA); experiment: α-Amylase inhibition; format: biochemical; details: CNPG3 substrate, 405 nm, 37 °C, mean ± SD, n = 9
Protocol: α-Amylase inhibition activity was performed using the 3,5-dinitrosalicylic acid (DNS) assay according to Zulfiqar et al. […] Then, 50 μL of substrate (2-chloro-4-nitro-[…] (CNPG3) (2 mM)) was added per well. Finally, absorbance was recorded at 405 nm (SPARK-10M, TECAN, Switzerland) at 37 °C for 10 min in 1-min intervals. The percentage of enzyme inhibition was calculated in relation to 100% enzymatic activity in the negative control (phosphate-buffered saline (PBS) buffer, enzyme, and substrate).

[5] = test system: rat intestinal acetone α-glucosidase; experiment: α-Glucosidase inhibition; format: biochemical; details: 2 mM maltose, pH 6.9, 37 °C, mean ± SD, n = 9
Protocol: α-Glucosidase inhibition assay was measured following the method of Vilcacundo et al., with slightly modifications. First, 100 μL of sample ([…]), positive control (1 mM acarbose), and/or negative control (Milli-Q-water), were added to 50 μL of rat intestinal acetone α-glucosidase (1 U/mL in 0.1 M, maleate buffer pH 6.9), and the mixture was incubated at 37 °C for 5 min. Then, 50 μL of substrate (2 mM maltose) was added into each tube, which was performed in a Thermomixer (37 °C, 1000 rpm, for 30 min). Finally, the reaction was stopped at 100 °C for 5 min. The glucose concentration in the reaction was measured using GOPOD (glucose oxidase/peroxidase) from Megazyme, with absorbance measured at 560 nm (Gen5 software, version 1.1, BioTek Instruments, Winooski, VT, USA). The percentage of inhibition was calculated relative to the non-inhibited control (negative control).

Fe^2+ chelation assay = details: 125 μM; ferrozine, pH 4.9, 37 °C, 10 min; mean ± SD, n = 9
Protocol: Fe^2+ chelation assay was measured according to Sanchez-Velazquez et al. with slightly modifications. 25 μL of sample (synthetic peptides, […]) or positive control (EDTA, 0.1 μg/μL) was added to 225 μL of buffer (sodium acetate, 100 mM, pH 4.9), then 15 μL of iron solution (0.1%, w/v) and 9 μL of ferrozine (40 mM) were added to start the reaction. For the blank well, 250 μL of buffer was added to the iron solution and ferrozine. The reaction was incubated 10 min at 37 °C and then read at 562 nm (SPARK-10M, TECAN, Switzerland). Fe^2+ chelating activity was calculated as described previously for copper.

[6] = Oxygen radical absorbance capacity (ORAC) assay; details: AAPH, fluorescein, 37 °C, 150 min
Protocol: Oxygen radical absorbance capacity (ORAC) assay was performed following the method of Carvalho-Oliveira et al. Briefly, 30 μL of peptide (different concentrations 50–1000 μM) or standard (Trolox at 0–160 μM) were placed in a black 96-well plate. The reaction mixture comprised 180 μL of fluorescein (116.9 nM) and 90 μL of 2,2’-azobis(2-amidinopropane) dihydrochloride (AAPH) (40 mM). Finally, the fluorescence was recorded every 2 min for 150 min at excitation and emission wavelengths of 485 and 520 nm, respectively. All reactions were performed at 37 °C. The results were expressed as μmol Trolox equivalent (TE)/μmol of peptide. Quantification and interpretation of the data were done by Gen5 software, version 1.1 (BioTek Instruments, Winooski, VT, USA).

[7] = 125 μM, fluorometric kit, 37 °C, mean ± SD, n = 9
[8] = 250 μM, fluorometric kit, 37 °C, mean ± SD, n = 9
[9] = 500 μM, fluorometric kit, 37 °C, mean ± SD, n = 9

C[C@H](CS)C(=O)N1CCC[C@H]1C(=O)O [commercial ACE-I inhibitor, reference compound]
ACE-I inhibition, reference inhibitor ([1]; 50 µM): 80.1%

DHSTAVW [synthetic peptide from pearl garlic, Yudho-Sutopo et al]
IC50 (ACE-I): 2.8 µM

GQLGEHGGAGMG
LOX inhibition (LOX; millet grain peptides, ref Karas et al. [120]): 50%

HHGGEFTPV [peptide from velvet antler blood, Ding et al]
anti-LOX activity (inhibition) (LOX): ≤ 12%

KETPEAHVF [synthetic peptide from pearl garlic, Yudho-Sutopo et al]
IC50 (ACE-I): 455 µM

KLAKVF [synthetic peptide from pearl garlic, Yudho-Sutopo et al]
IC50 (ACE-I): 77.2 µM

KLSTAASF [synthetic peptide from pearl garlic, Yudho-Sutopo et al]
IC50 (ACE-I): 172 µM

LKECCDKPV [peptide from velvet antler blood, Ding et al]
anti-LOX activity (inhibition) (LOX): ≤ 12%

LSQKFPK [peptide from velvet antler blood, Ding et al]
anti-LOX activity (inhibition) (LOX): ≤ 12%

NIYQIS [quinoa 11S globulin peptide, custom-synthesized by GenScript, purity 95%]
DPP-IV inhibition (human DPP-IV; 125 μM): ND (no inhibitory effect was observed at the given concentration)
DPP-IV inhibition (human DPP-IV; 250 μM): 12.22 ± 0.50^b %
DPP-IV inhibition (human DPP-IV; 500 μM): 16.36 ± 0.70^a %
LOX inhibition [2]: 16.20%
ACE-I inhibition [1, 7]: 17.20 ± 0.28^d %
ACE-I inhibition [1, 8]: 31.7 ± 2.40^b %
ACE-I inhibition [1, 9]: 53.0 ± 1.41^a %
TEAC inhibition (ABTS^●+ inhibition) ([3]; 125 μM): 7.87 ± 0.10%
TEAC inhibition (ABTS^●+ inhibition) ([3]; 250 μM): 7.39 ± 0.19%
TEAC inhibition (ABTS^●+ inhibition) ([3]; 500 μM): 8.19 ± 0.38%
α-amylase inhibition ([4]; 300 μM): ND (no inhibitory effect was observed at the given concentration)
α-amylase inhibition ([4]; 400 μM): ND (no inhibitory effect was observed at the given concentration)
α-amylase inhibition ([4]; 500 μM): did not show significant α-amylase inhibition; also recorded: ND (no inhibitory effect was observed at the given concentration)
α-glucosidase inhibition ([5]; 300 μM): 7.72 ± 0.95^c %
inhibition ([5]; 400 μM): 10.4 ± 0.93%
α-glucosidase inhibition ([5]; 500 μM): 11.93 ± 0.92^b %
Fe^2+ chelating activity (Fe^2+ chelation assay): 9.04 ± 0.96%
ORAC [6]: 0.75 μmol TE/μmol peptide
ORAC ([6]; mean ± SD, n = 9): 0.75 μM TE/μM Peptide and 0.75 ± 0.02^a μM TE/μM Peptide

VGYP [peptide from velvet antler blood, Ding et al]
anti-LOX activity (inhibition) (LOX): ≤ 12%

YDDER [quinoa 11S globulin peptide, custom-synthesized by GenScript, purity 95%]
DPP-IV inhibition (human DPP-IV; 125 μM): ND (no inhibitory effect was observed at the given concentration)
DPP-IV inhibition (human DPP-IV; 250 μM): ND (no inhibitory effect was observed at the given concentration)
DPP-IV inhibition (human DPP-IV; 500 μM): 3.44 ± 0.50^d %
LOX inhibition [2]: 22.64%
inhibition [1, 7]: 21.1 ± 0.19%
ACE-I inhibition [1, 8]: 24.1 ± 0.18^c %
ACE-I inhibition [1, 9]: 24.3 ± 0.15^c %
TEAC inhibition (ABTS^●+ inhibition) ([3]; 250 μM): 7.45 ± 0.19%
TEAC inhibition (ABTS^●+ inhibition) ([3]; 500 μM): 8.7 ± 0.50%
α-amylase inhibition ([4]; 300 μM): 12.20 ± 1.67^c %
α-amylase inhibition ([4]; 400 μM): 11.43 ± 2.04^c %
α-amylase inhibition ([4]; 500 μM): 6.66 ± 0.38^d %
α-glucosidase inhibition ([5]; 300 μM): 8.48 ± 0.94^c %
α-glucosidase inhibition ([5]; 400 μM): 8.33 ± 0.94^c %
α-glucosidase inhibition ([5]; 500 μM): 14.86 ± 0.89^a %
Fe^2+ chelating activity (Fe^2+ chelation assay): 8.8 ± 1.0%
ORAC [6]: 0.24 μmol TE/μmol peptide
ORAC ([6]; mean ± SD, n = 9): 0.24 ± 0.01^b μM TE/μM Peptide

From PMC12426930, “Antioxidant, Hypotensive, and Antidiabetic Breakthroughs: Bromelain Hydrolysis Unlocks Quinoa’s Peptide Potential - In Silico and In Vitro Approach” (Journal of Agricultural and Food Chemistry, 2025)
